From the supplement of paper PMC11208160

Test: recombinant UMI read abundance after kanamycin selection (control-corrected) (log10(CPM+1)); higher = more efficient recombination; extreme values may be limits of the assay; sequences stand for … in AGTGCAGAGAAAATCGGCCAGTTTTCTCTGCCTGCAGTCCGCATGCCGTGGGACCCCTTGGGTTCTAACCTGTTGCCTAGATTTATGCAGCGGACTGCCTTTCTCCCAAAGTGATAAACCGG…AGGTTGGTTTCACT; site = the 11-nt donor
How it was run: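 In Escherichia coli, a pool of donor and donor-binding-loop pairs, each with a 12-nt UMI, was tested for the IS621 bridge recombinase. Plating was on IPTG (0.07 mM) plus kanamycin, or without selection, in two replicates. Recombinant UMIs were amplified by PCR across the donor–target junction and sequenced, and counts were reported as log10(CPM+1) after averaging and control-derived scaling.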
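Also: IS621 bridge recombinase in Escherichia coli cells against a fixed T5 target plasmid.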

Question: Which “recombinant UMI read abundance (log10)” value does the source give for “AGGAACCCATGGACCGGTTTTCCCGGTAATCCGTATTTGCA (site AGGAACCCTTG)” here?
Answer: 0.786

Question: With “AGGAACCCATGGACCGGTTTTCCCGGTAATCCGTATTTGCA (site AGGAAGACTTG)” as the sequence, how does the “recombinant UMI read abundance (log10)” value read?
Answer: 0

Question: With “AGGAAGACATGGACCGGTTTTCCCGGTAATCCGTATTTGAA (site AGGAAGACTTA)” as the sequence, how does the “recombinant UMI read abundance (log10)” value read?
Answer: 0.985

Question: Which “recombinant UMI read abundance (log10)” value does the source give for “AGGAAGACATGGACCGGTTTTCCCGGTAATCCGTATTTGAA (site AGGAAGACTTC)” here?
Answer: 0.592

Question: With “AGGAAGACATGGACCGGTTTTCCCGGTAATCCGTATTTGAA (site AGGAAGACTTG)” as the sequence, how does the “recombinant UMI read abundance (log10)” value read?
Answer: 0.298

Question: Which “recombinant UMI read abundance (log10)” value does the source give for “AGGAAGACATGGACCGGTTTTCCCGGTAATCCGTATTTGAA (site AGGAAGACTTT)” here?
Answer: 2.37

Question: For “AGGAAGACATGGACCGGTTTTCCCGGTAATCCGTATTTGCA (site AAGAACACTTG)”, which “recombinant UMI read abundance (log10)” value is on record?
Answer: 0

Question: For “AGGAAGACATGGACCGGTTTTCCCGGTAATCCGTATTTGCA (site AAGAAGACTGG)”, which “recombinant UMI read abundance (log10)” value is on record?
Answer: 0

Question: Which “recombinant UMI read abundance (log10)” value does the source give for “AGGAAGACATGGACCGGTTTTCCCGGTAATCCGTATTTGCA (site AAGAAGACTTG)” here?
Answer: 1.06

Question: For “AGGAAGACATGGACCGGTTTTCCCGGTAATCCGTATTTGCA (site AAGAAGACTTT)”, which “recombinant UMI read abundance (log10)” value is on record?
Answer: 0.0128

Question: With “AGGAAGACATGGACCGGTTTTCCCGGTAATCCGTATTTGCA (site AAGAAGCCTTG)” as the sequence, how does the “recombinant UMI read abundance (log10)” value read?
Answer: 0

Question: Which “recombinant UMI read abundance (log10)” value does the source give for “AGGAAGACATGGACCGGTTTTCCCGGTAATCCGTATTTGCA (site AAGAGGACTTG)” here?
Answer: 0.101

Question: For “AGGAAGACATGGACCGGTTTTCCCGGTAATCCGTATTTGCA (site AAGTAGACTTG)”, which “recombinant UMI read abundance (log10)” value is on record?
Answer: 1.23

Question: With “AGGAAGACATGGACCGGTTTTCCCGGTAATCCGTATTTGCA (site AATAAGACTTG)” as the sequence, how does the “recombinant UMI read abundance (log10)” value read?
Answer: 1.43

Question: With “AGGAAGACATGGACCGGTTTTCCCGGTAATCCGTATTTGCA (site ACAAAGACTTG)” as the sequence, how does the “recombinant UMI read abundance (log10)” value read?
Answer: 1.25

Question: For “AGGAAGACATGGACCGGTTTTCCCGGTAATCCGTATTTGCA (site ACGAAAACTTG)”, which “recombinant UMI read abundance (log10)” value is on record?
Answer: 0

Question: With “AGGAAGACATGGACCGGTTTTCCCGGTAATCCGTATTTGCA (site ACGAAGACTCG)” as the sequence, how does the “recombinant UMI read abundance (log10)” value read?
Answer: 0.0101

Question: With “AGGAAGACATGGACCGGTTTTCCCGGTAATCCGTATTTGCA (site ACGAAGACTTA)” as the sequence, how does the “recombinant UMI read abundance (log10)” value read?
Answer: 0.00527

Question: With “AGGAAGACATGGACCGGTTTTCCCGGTAATCCGTATTTGCA (site ACGAAGACTTG)” as the sequence, how does the “recombinant UMI read abundance (log10)” value read?
Answer: 0.832

Question: Which “recombinant UMI read abundance (log10)” value does the source give for “AGGAAGACATGGACCGGTTTTCCCGGTAATCCGTATTTGCA (site ACGAAGTCTTG)” here?
Answer: 0

Question: For “AGGAAGACATGGACCGGTTTTCCCGGTAATCCGTATTTGCA (site ACGATGACTTG)”, which “recombinant UMI read abundance (log10)” value is on record?
Answer: 0

Question: For “AGGAAGACATGGACCGGTTTTCCCGGTAATCCGTATTTGCA (site ACGGAGACTTG)”, which “recombinant UMI read abundance (log10)” value is on record?
Answer: 2.51

Question: Which “recombinant UMI read abundance (log10)” value does the source give for “AGGAAGACATGGACCGGTTTTCCCGGTAATCCGTATTTGCA (site AGAAAAACTTG)” here?
Answer: 0

Question: Which “recombinant UMI read abundance (log10)” value does the source give for “AGGAAGACATGGACCGGTTTTCCCGGTAATCCGTATTTGCA (site AGAAAGACTCG)” here?
Answer: 0.0197

Question: Which “recombinant UMI read abundance (log10)” value does the source give for “AGGAAGACATGGACCGGTTTTCCCGGTAATCCGTATTTGCA (site AGAAAGACTTA)” here?
Answer: 0.795

Question: Which “recombinant UMI read abundance (log10)” value does the source give for “AGGAAGACATGGACCGGTTTTCCCGGTAATCCGTATTTGCA (site AGAAAGACTTG)” here?
Answer: 2.32

Question: For “AGGAAGACATGGACCGGTTTTCCCGGTAATCCGTATTTGCA (site AGAAAGTCTTG)”, which “recombinant UMI read abundance (log10)” value is on record?
Answer: 0.0125

Question: With “AGGAAGACATGGACCGGTTTTCCCGGTAATCCGTATTTGCA (site AGAATGACTTG)” as the sequence, how does the “recombinant UMI read abundance (log10)” value read?
Answer: 0.777

Question: Which “recombinant UMI read abundance (log10)” value does the source give for “AGGAAGACATGGACCGGTTTTCCCGGTAATCCGTATTTGCA (site AGAGAGACTTG)” here?
Answer: 1.79

Question: For “AGGAAGACATGGACCGGTTTTCCCGGTAATCCGTATTTGCA (site AGCAAGACTAG)”, which “recombinant UMI read abundance (log10)” value is on record?
Answer: 0.0137

Question: With “AGGAAGACATGGACCGGTTTTCCCGGTAATCCGTATTTGCA (site AGCAAGACTTC)” as the sequence, how does the “recombinant UMI read abundance (log10)” value read?
Answer: 0.00298

Question: For “AGGAAGACATGGACCGGTTTTCCCGGTAATCCGTATTTGCA (site AGCAAGACTTG)”, which “recombinant UMI read abundance (log10)” value is on record?
Answer: 0.723

Question: For “AGGAAGACATGGACCGGTTTTCCCGGTAATCCGTATTTGCA (site AGCAAGGCTTG)”, which “recombinant UMI read abundance (log10)” value is on record?
Answer: 0.00883

Question: Which “recombinant UMI read abundance (log10)” value does the source give for “AGGAAGACATGGACCGGTTTTCCCGGTAATCCGTATTTGCA (site AGCAATACTTG)” here?
Answer: 0

Question: Which “recombinant UMI read abundance (log10)” value does the source give for “AGGAAGACATGGACCGGTTTTCCCGGTAATCCGTATTTGCA (site AGCACGACTTG)” here?
Answer: 0

Question: With “AGGAAGACATGGACCGGTTTTCCCGGTAATCCGTATTTGCA (site AGCCAGACTTG)” as the sequence, how does the “recombinant UMI read abundance (log10)” value read?
Answer: 0.654

Question: For “AGGAAGACATGGACCGGTTTTCCCGGTAATCCGTATTTGCA (site AGGAAAACTCG)”, which “recombinant UMI read abundance (log10)” value is on record?
Answer: 0

Question: For “AGGAAGACATGGACCGGTTTTCCCGGTAATCCGTATTTGCA (site AGGAAAACTTA)”, which “recombinant UMI read abundance (log10)” value is on record?
Answer: 0

Question: For “AGGAAGACATGGACCGGTTTTCCCGGTAATCCGTATTTGCA (site AGGAAAACTTG)”, which “recombinant UMI read abundance (log10)” value is on record?
Answer: 0.57

Question: For “AGGAAGACATGGACCGGTTTTCCCGGTAATCCGTATTTGCA (site AGGAAATCTTG)”, which “recombinant UMI read abundance (log10)” value is on record?
Answer: 0

Question: With “AGGAAGACATGGACCGGTTTTCCCGGTAATCCGTATTTGCA (site AGGAACACTGG)” as the sequence, how does the “recombinant UMI read abundance (log10)” value read?
Answer: 0.014

Question: For “AGGAAGACATGGACCGGTTTTCCCGGTAATCCGTATTTGCA (site AGGAACACTTG)”, which “recombinant UMI read abundance (log10)” value is on record?
Answer: 1.51

Question: Which “recombinant UMI read abundance (log10)” value does the source give for “AGGAAGACATGGACCGGTTTTCCCGGTAATCCGTATTTGCA (site AGGAACACTTT)” here?
Answer: 0.0161

Question: For “AGGAAGACATGGACCGGTTTTCCCGGTAATCCGTATTTGCA (site AGGAACCCTTG)”, which “recombinant UMI read abundance (log10)” value is on record?
Answer: 0

Question: Which “recombinant UMI read abundance (log10)” value does the source give for “AGGAAGACATGGACCGGTTTTCCCGGTAATCCGTATTTGCA (site AGGAAGACTAC)” here?
Answer: 0.00471

Question: Which “recombinant UMI read abundance (log10)” value does the source give for “AGGAAGACATGGACCGGTTTTCCCGGTAATCCGTATTTGCA (site AGGAAGACTAG)” here?
Answer: 0.102

Question: With “AGGAAGACATGGACCGGTTTTCCCGGTAATCCGTATTTGCA (site AGGAAGACTCA)” as the sequence, how does the “recombinant UMI read abundance (log10)” value read?
Answer: 0.0159

Question: For “AGGAAGACATGGACCGGTTTTCCCGGTAATCCGTATTTGCA (site AGGAAGACTCG)”, which “recombinant UMI read abundance (log10)” value is on record?
Answer: 0.784

Question: With “AGGAAGACATGGACCGGTTTTCCCGGTAATCCGTATTTGCA (site AGGAAGACTGG)” as the sequence, how does the “recombinant UMI read abundance (log10)” value read?
Answer: 1.34

Question: For “AGGAAGACATGGACCGGTTTTCCCGGTAATCCGTATTTGCA (site AGGAAGACTGT)”, which “recombinant UMI read abundance (log10)” value is on record?
Answer: 0

Question: With “AGGAAGACATGGACCGGTTTTCCCGGTAATCCGTATTTGCA (site AGGAAGACTTA)” as the sequence, how does the “recombinant UMI read abundance (log10)” value read?
Answer: 1.62

Question: With “AGGAAGACATGGACCGGTTTTCCCGGTAATCCGTATTTGCA (site AGGAAGACTTC)” as the sequence, how does the “recombinant UMI read abundance (log10)” value read?
Answer: 0.0105
